# Non-standard residues stand in square brackets, D forms with d. Residues, ends and D or L forms follow the SMILES beside them. *: point of attachment. 1Nal = N[C@@H](Cc1cccc2ccccc12)C(=O)O; Sta = CC(C)C[C@H](N)[C@@H](O)CC(=O)O; Cbz = O=C(OCc1ccccc1)*; NHNH2 = NN*
row,SMILES,melting point [°C]
1,CC(=O)N1CCc2c(sc(C)c2C(=O)CCN2CCC(c3noc4cc(F)ccc34)CC2)C1,180 to 182
2,COc1ccc(-c2cc(C(N)=O)c(=O)n(CC3CC3)n2)cc1,182 to 183
3,Nc1ccc(NCCO)c(C(F)(F)F)c1,74 to 75
4,O=C(CS(=O)Cc1ccc([N+](=O)[O-])cc1)NO (stereo unspecified),227
5,COC(=O)C1(NS(=O)(=O)c2ccc3c(Cl)cnc(NC(=N)N)c3c2)CCOCC1,245 to 247
6,Nc1ccc(C(=O)c2ccncc2)cc1,152
7,COC(=O)C=CCOc1ccc(F)c(C(N)=O)c1F,122 to 123
8,Oc1ncnc2c(-c3ccc(Cc4ccccc4)cc3)cnn12,300 to 303
9,O=C(O)CCc1c(Br)cccc1C(F)(F)F,122 to 126
10,COc1ccc(C(O)(c2ccc(OC)cc2)C2CCNCC2)cc1,153 to 155
11,Cc1ccc(O)c(C)c1N,177 to 179
12,CSc1nc(-c2ccccn2)n(-c2ccc(F)cc2)c(=O)c1C#N,221 to 227
13,CC(C)(C)NS(=O)(=O)c1ccsc1C1=CC(=O)CCC1,157 to 158
14,C#CCOc1cc(-c2ncc(C(F)(F)F)cc2F)c(F)cc1Cl,68 to 70
15,O=Cc1nn2c3c(cccc13)CCC2,119 to 120
16,O=C(NNc1ccc([N+](=O)[O-])cc1)C(F)(F)F,115 to 117
17,Cc1cc(F)c(NS(=O)(=O)c2ccccc2)cc1NS(=O)(=O)c1ccccc1,146
18,CCC(=S)N1CCSC1=Nc1ccccc1C(C)C,79 to 81
19,CCNC(=O)c1c(Cl)cccc1[Si](C)(C)C(C)C,98 to 100
20,COc1ccc2c(c1)c(-c1cc3cccnc3[nH]1)cn2C,226 to 227
21,COc1cccc(OCCO)c1-c1ccc(C[C@H](NC(=O)c2c(Cl)cccc2Cl)C(=O)O)cc1,158 to 159
22,Oc1ccc2cc(-c3cnc(Cc4ccccc4)o3)ccc2c1,200 to 202
23,O=[N+]([O-])c1ccc(NS(=O)(=O)C(F)(F)F)c(Oc2ccc3ccccc3c2)c1,117 to 120
24,Nc1ccc(I)cc1C=O,105
25,O=C(Nc1cnccn1)c1cn(-c2ccccc2)c2ccccc2c1=O,298 to 300
26,N#Cc1ccc2c(c1)S(=O)(=O)N=CN2C1CC1,268 to 270

row,SMILES,melting point [°C]
1,COc1cc(C)nc2c(OCc3c(Cl)ccc(N(C)C(=O)CN4C(=O)c5ccccc5C4=O)c3Cl)cccc12,209 to 210
2,O=C(O)Cc1ccc(Oc2ccc(CC3SC(=O)NC3=O)cc2)cc1 (stereo unspecified),166
3,CCCCOC(=O)NS(=O)(=O)CCc1c(C(F)(F)F)nn(C)c1-n1ccc2cc(Cl)cnc21,136 to 137
4,CC(=O)Nc1cc2c(cc1[N+](=O)[O-])[C@@H](NC(C)=O)[C@H](O)C(C)(C)O2 (relative stereo),256 to 259
5,Oc1cccc(C(O)(c2nccs2)C(F)(F)F)c1 (stereo unspecified),94 to 96
6,CC(NC(=O)c1ccccc1)c1c[nH]c(-c2ccccc2)n1 (stereo unspecified),132 to 135
7,O=Cc1cc2cc(F)c(F)cc2nc1Cl,226 to 229
8,CC(C)(C)SCC1Cn2cc(C(=O)NCc3ccc(Cl)cc3)c(=O)c3cc(CN4CCOCC4)cc(c32)O1 (stereo unspecified),198 to 201
9,COc1cc2c(-c3cc4cc(F)cnc4[nH]3)cn(C)c2cc1OC,283
10,CN(C)C(=O)CCCOC(=O)C(C)(OCc1ccc2ccccc2c1)C(F)(F)F (stereo unspecified),42 to 43
11,CN(C)C=Cc1c(N)cc([N+](=O)[O-])cc1[N+](=O)[O-],105 to 107
12,O=C1CCCN1c1ccc(N2C[C@H](CO)OC2=O)cc1,148
13,O=NCNC1=Nc2ccc([N+](=O)[O-])cc2C(c2ccccc2Cl)=NC1,164 to 166
14,CCCCCCCCCCCCCCCCS(=O)(=O)NCCCCCCCN(C)C,56 to 57.5
15,CC1(C)CC(=C(c2ccc(O)cc2)c2ccc(OCCCC(=O)O)cc2)CC(C)(C)C1,203 to 204
16,O=S1(=O)NCN(C2CC2)c2c(F)cc(F)cc21,149 to 151
17,COc1cc(C(=O)c2ccccc2)c(O)c2c1C(C)(C)CCC2(C)C,85
18,CC(C)(C)c1ccc([C@@H]2C[C@H]3C=C(c4c[nH]c(-c5ccc(F)cc5)c4-c4ccncc4)CCN3C2)cc1,226 to 228
19,COc1ccc(-c2cc3cc(F)c(F)cc3[nH]2)cc1NS(=O)(=O)c1cc(Cl)cc(Cl)c1,217 to 219
20,O=C(O)[C@@H]1CCCN1S(=O)(=O)c1cc(Cl)cc(Cl)c1O,107
21,C=CCNc1nc(N)nc2c1ncn2C1CC(F)C(CO)O1 (stereo unspecified),128 to 129
22,CC(C)C[C@H](NC(=O)[C@H](Cc1c[nH]cn1)NC(=O)[C@H](Cc1cccc2ccccc12)NC(=O)OCc1ccccc1)[C@@H](O)CC(=O)NN (Cbz-[1Nal]-His-[Sta]-NHNH2),120 to 127
23,COC(=O)C1=C(C)Nc2nc[nH]c(=O)c2C1c1cccc([N+](=O)[O-])c1 (stereo unspecified),289 to 290
24,O=C(O)[C@@H]1CC[C@H](n2nc(-c3c(-c4ccccc4)nn4ccccc34)ccc2=O)C(=O)C1 (relative stereo),186 to 188
25,CCCc1cc(CP(=O)(OC)OC)c2c(CP(=O)(OC)OC)cccc2c1OC,69 to 70
26,COc1cccc2c1CCC1CCC(=O)N(C)CC21 (stereo unspecified),123 to 124

row,SMILES,melting point [°C]
1,Cn1c(=O)c2ncn(CCCCCC(=O)O)c2n(C)c1=O,177
2,CNC(=O)c1ccccc1Nc1nc(Nc2ccc3c(c2)NCCNC3=O)ncc1Cl,232 to 237
3,COc1ccc(CNc2cc(OCc3ccccn3)ccc2C(=O)c2cc(OC)c(OC)c(OC)c2)cc1Cl,142 to 144
4,CN1CCC[C@H]1c1cnc(Cl)c(Cl)c1C(O)(c1ccccc1)c1ccccc1,170 to 172
5,Cc1cc(C)n(Cc2ccc3c(c2)Cc2c(-c4ccsc4)n[nH]c2-3)n1,257 to 260
6,COC(=O)c1cc2ccc(C(=O)NCCN3CCOCC3)cc2[nH]1,226 to 228
7,CON=C(C(C)=C(ON)c1ccccc1C(=NOC)C(=O)OC)c1ccc(Cl)cc1,115 to 117
8,CC(C)(Oc1ccc(Cl)cc1)C(=O)Cn1cncn1,101 to 103
9,CSc1ccc(C(CC2CCCC2)C(=O)Nc2ccc([N+](=O)[O-])cn2)cc1C(F)(F)F (stereo unspecified),109 to 110
10,CCCCOc1cc(/C=C(\OCC)C(=O)O)ccc1OCCc1ccc(OS(=O)(=O)CCCC)c(Cl)c1,80
11,COc1cn(C)c(=O)c(N)n1,166 to 167
12,CC1(C)OC(=O)Nc2ccc(-c3cccc(Cl)c3)cc21,158 to 159
13,CN1C(=O)N(c2ccccc2)S[N+]1(C)[O-] (stereo unspecified),77 to 79
14,O=C(COc1ccc(CCNCC(O)COc2ccccc2)cc1)NO (stereo unspecified),126 to 128
15,CC(=O)NCCO[C@H]1COc2ccc3cnn(C[C@@H](C)O)c3c2C1,165 to 166
16,CCCCOc1cc(F)ccc1[N+](=O)[O-],75 to 76
17,Nc1ccc(Cl)cc1Cc1ccccc1Cl,64 to 65
18,CC12CCC(=O)C=C1CCC1C2CCC2(C)C(=CCC(=O)O)CCC12 (stereo unspecified),266 to 270
19,CN1CCC[C@H]1c1cnc(Cl)cc1C(O)c1cc(Cl)ncc1[C@@H]1CCCN1C,80 to 82
20,C=CC(C)c1cc(C)c2c(c1O)C(N(C)C(C)=O)C1CCCCC21 (stereo unspecified),143 to 145
21,Fc1cc(-n2cnnn2)ccc1-c1ccc2oc(C3CCNCC3)nc2c1,148 to 151
22,O=C(SCC(Cc1ccc(Cl)cc1)C(=O)O)c1ccccc1 (stereo unspecified),111 to 114
23,N#Cc1cnn2c1N(C(=O)CN1CCN(C(=O)Nc3cccc(Cl)c3)CC1)CC=C2c1cccc(C(F)(F)F)c1,182 to 185
24,CCOC(=O)Cc1nn(Cc2nc3ccccc3n2C)c(=O)c2ccccc12,118
25,NCCCCNC(=O)C(=O)NCCCCN,106 to 108
26,C=CCc1c(N2C(=O)C3=C(CCCC3)C2=O)ccc(Cl)c1O,80 to 82.5

row,SMILES,melting point [°C]
1,CC1=C(C(=O)c2ccc3c(c2)CCN(C(N)=O)C3)C(C)(C)CC1,40.1 to 41.4
2,CC(=O)NC1CCN(c2cccc(C)n2)CC1,145 to 147
3,CC(=O)N1CCC(CCC(=O)c2ccc3c(c2)CCN3C(C)=O)CC1,148 to 149
4,CC(=O)NCC(C)(C)c1ccc2nc(-c3ccncc3)[nH]c2c1,219 to 225
5,Cc1c(C2=CCC(c3ccccc3)(N(C)C)CC2)[nH]c2ccccc12 (stereo unspecified),168 to 180
6,CC1(C)CCC(C)(C)c2c(O)cc(-c3ccccc3)cc21,121
7,COCCCNS(=O)(=O)NC(=O)OCc1ccccc1,91 to 93
8,CCOC(CBr)(OCC)C(=NOC)C(=O)Cl,33 to 35
9,O=C(O)c1c[nH]cc2c(=O)n(-c3ccccc3)nc1-2,287 to 302
10,CNC(=O)c1ccc(C=CC(=O)NCC(=O)N(C)c2ccc(C)c(COc3cccc4c3nc(SC)n4C)c2C)cc1,224 to 225
11,CCOC(=O)N=P(c1ccccc1)(c1ccccc1)c1ccccc1OC,80 to 83
12,CN1c2ccc(-c3cccc4ccccc34)cc2S(=O)c2cc(-c3cccc4ccccc34)ccc21,221 to 225
13,O=C(c1ccc(Cl)cc1)c1c(CN2CCN(c3ccccc3)CC2)csc1N1C(=O)c2ccccc2C1=O,220 to 222
14,O=C1Cc2ccccc2C(c2ccccc2C(F)(F)F)N1 (stereo unspecified),210 to 212
15,CC(C)(C)OC(=O)N1CCC(C(=O)c2nc3ccccc3[nH]2)CC1,226 to 228
16,N#CNC(=N)NC1CC1,106
17,CC1COc2c(-c3ccccc3)ccc3c(=O)c(C(=O)O)cn1c23 (stereo unspecified),295 to 296
18,CNC(=O)C(NC(=O)c1ccc(F)cc1C(F)(F)F)C(O)C(F)(F)F (stereo unspecified),212
19,CC(C)CNC(=O)C(C)NC(=O)C(C)NC(=O)C(C)NC(=O)OCc1ccccc1 (stereo unspecified),260 to 262
20,N#CC(C#N)=C(NC1CCN(Cc2ccccc2)CC1)NC1CCN(Cc2ccccc2)CC1,147 to 148
21,O=C(O)c1cc(Cl)ccc1OC1CCOC1=O (stereo unspecified),159 to 160
22,O=C1c2ccccc2S(=O)(=O)N1Cn1nnn(-c2ccccc2)c1=S,140 to 142
23,CCCCOC(=O)NCCc1nc(-c2ccc(-c3ccccc3)cc2)c[nH]1,137
